Experimental findings from PubChem BioAssay AID1996 are described below.

For orientation: solubility (kinetic) means solubility judged after dilution from a stock solution rather than from solid.

In brackets after ≈: the same amount, converted by molar mass. Bounds are passed on as bounds.

For the data set the following is noted: buffer; pH 7.4; 200.0 µM.
With `CC(=O)Nc1ccc(N/C=C/C(=O)c2ccc(Br)cc2)cc1`, the solubility (kinetic) worked out at 1 µg/mL (≈ 2.78 µM).
`Cc1ccc2c(CN3CCOCC3)cc(=O)oc2c1C` yielded a kinetic solubility greater than 41 µg/mL.
Regarding `O=C(NCCCn1ccnc1)C(=O)NC1CCCCC1`, the solubility (kinetic) was greater than 41.8 µg/mL.
`Cc1ccc(CC2CC(=O)N(c3ccc(C)cc3)C2=O)cc1` (stereo unspecified) showed a kinetic solubility of 7.8 µg/mL (≈ 26.6 µM).
`Cc1cccc(Nc2nc(NCc3ccco3)nc(N)c2[N+](=O)[O-])c1`: the solubility (kinetic) is less than 0.1 µg/mL.
As for `Cc1ccccc1-c1nnc(CS(=O)(=O)c2ccccc2)o1`, the figure is greater than 47.2 µg/mL; as for `O=C1NC2(CCCCC2)C(=O)N1c1cccc(Cl)c1`, 11.1 µg/mL (≈ 39.8 µM); as for `CC(C)(C#CC(O)(c1ccccc1)c1ccccc1)N1CCCCC1`, 46.3 µg/mL (≈ 139 µM).
`FC(F)Oc1ccc(N=C2SCC3CCCCN23)cc1` (stereo unspecified) had a kinetic solubility of 15.3 µg/mL (≈ 51.3 µM). This solubility kinetic is about 3-fold lower than that of the compound before.
`Cc1ccccc1Nc1nc(N)nc(CSc2nnc(C)n2C)n1` registered a kinetic solubility greater than 51.4 µg/mL.
`Nc1nc2c(Cl)cc(Cl)cc2s1` gave a solubility (kinetic) of 7.4 µg/mL (≈ 33.8 µM).
In turn, `O=C(O)c1ccccc1Nc1ccc(OC(F)F)cc1` came in with a solubility (kinetic) greater than 41.9 µg/mL.
As to `COC(=O)C1Cc2ccccc2CN1S(=O)(=O)c1ccc(C)cc1` (stereo unspecified), the kinetic solubility was determined as 19.6 µg/mL (≈ 56.7 µM).
In the case of `Cc1ccc(-c2cnc3n2CCCCC3)cc1`, the solubility (kinetic) was greater than 33.9 µg/mL.
Regarding `COC(=O)c1ccc2c(=O)n(-c3ccccc3F)c(=S)[nH]c2c1`, the kinetic solubility is 1 µg/mL (≈ 3.03 µM).
Consider `CNC(=O)c1oc(-c2ccc(Cl)cc2)nc1C`, for which the solubility (kinetic) is greater than 37.6 µg/mL.
Take `Clc1ccc2c(c1)C(N1CCNCC1)=Nc1ccccc1O2`: the solubility (kinetic) was 34.4 µg/mL (≈ 110 µM).
Consider `CCOc1ccc(N=C2SCC(=O)N2CC)cc1`, for which the solubility (kinetic) was found to be 33.6 µg/mL (≈ 127 µM).
Consider `CC(CNC(=O)COC(=O)c1cccs1)c1ccccc1` (stereo unspecified), for which the solubility (kinetic) is greater than 45.5 µg/mL.
The compound `COc1ccccc1CN(C)C(=O)c1ccc(S(=O)(=O)Nc2c(C)n(C)n(-c3ccccc3)c2=O)cc1` showed a kinetic solubility greater than 78.1 µg/mL.
The figure for `Cc1ccc(N2C(=O)C3ON(c4ccccc4)C(CC(C)C)C3C2=O)cc1` (stereo unspecified) is 11.6 µg/mL (≈ 31.8 µM); for `COc1cc(/C=C2\SC(N)=NC2=O)ccc1O` it is 34.5 µg/mL (≈ 138 µM); for `CN(C)c1cc[n+](CC(=O)c2cccs2)cc1.[Cl-]` it is 41.7 µg/mL.
Regarding `Cc1[nH]c2ccccc2c1C(=O)C(=O)N1CC2CC(C1)c1cccc(=O)n1C2` (stereo unspecified), the kinetic solubility was greater than 56.3 µg/mL.
`CCN(C(=O)CN1CCC(C(=O)OC)CC1)c1c(N)n(Cc2ccccc2)c(=O)[nH]c1=O` had a solubility (kinetic) greater than 66.5 µg/mL.
`COc1ccccc1C(=O)NCc1ccccn1`: the kinetic solubility is greater than 36.3 µg/mL.
`NC(=O)c1ccccc1NC(=O)COc1ccc2c(c1)OCO2` showed a kinetic solubility of 3.1 µg/mL (≈ 9.86 µM).
The figure for `CN(C)Cc1c(O)ccc2c(=O)c(-c3ccccc3Cl)coc12` is greater than 49.5 µg/mL.
Turning to `CC(CN)(NS(=O)(=O)c1ccccc1)c1ccccc1` (stereo unspecified), the kinetic solubility was greater than 43.6 µg/mL.
On to `CCOc1cc(/C=C\[N+](=O)[O-])ccc1OCC(=O)N1CCOCC1`, for which the solubility (kinetic) came out at 24.5 µg/mL (≈ 72.8 µM).
`O=C(NCc1cccnc1)c1cc(C(=O)C2CC2)c[nH]1`: the kinetic solubility is greater than 40.4 µg/mL.
Compound `N#Cc1ccc(NC(=O)Cn2cnc([N+](=O)[O-])c2)cc1` displayed a kinetic solubility of 37.4 µg/mL (≈ 138 µM).
The compound `CN(C)C(=S)NC1CCS(=O)(=O)C1` (stereo unspecified) had a solubility (kinetic) greater than 33.3 µg/mL.
In the case of `O=C(CN1C(=O)c2ccccc2C1=O)NC1CCC(O)CC1` (stereo unspecified), the kinetic solubility is greater than 45.3 µg/mL.
Turning to `NC(=O)c1sc2nc(-c3cccs3)ccc2c1N`, the solubility (kinetic) turned out to be 6.1 µg/mL (≈ 22.2 µM).
With `O=C(O)/C(=C/c1ccco1)NC(=O)c1ccc(Br)o1`, the kinetic solubility was greater than 48.9 µg/mL.
`O=C(COc1cc(F)ccc1[N+](=O)[O-])NCC1CCCO1` (stereo unspecified) came in with a kinetic solubility greater than 44.7 µg/mL.
For the compound `COC(=O)c1ccc(CN(C)S(=O)(=O)c2cccs2)cc1`, the solubility (kinetic) worked out at 2.6 µg/mL (≈ 7.99 µM).
Consider `O=C(NCc1ccco1)/C(=C\c1cccs1)NC(=O)c1ccccc1`, for which the kinetic solubility was greater than 52.9 µg/mL.
With `O=C(NCc1cccnc1)Nc1cccc(C(F)(F)F)c1`, the kinetic solubility is greater than 44.3 µg/mL.
As for `Cc1ccc(C)c(NC(=O)NCCN2CCCCC2)c1`, the figure is 35.6 µg/mL (≈ 129 µM).
For `Br.COc1ccc(C(=O)CN2Cc3ccccc3C2=N)cc1`, the solubility (kinetic) is greater than 54.2 µg/mL.
As for `CC(=O)C1=C(C)OC(N)=C(C#N)C1c1cccnc1` (stereo unspecified), the figure is greater than 38.3 µg/mL; as for `CCCc1cc(=S)n2c([nH]c3ccccc32)c1C#N`, 16.4 µg/mL (≈ 61.3 µM).
As for `CC(C)(C)NC(=O)COc1ccc(CNc2ccc3[nH]c(=O)[nH]c3c2)cc1`, the figure is 0.8 µg/mL (≈ 2.17 µM); as for `O=C(CSc1nc(O)cc(=O)[nH]1)N1CCOCC1`, greater than 40.7 µg/mL.
On to `CCCCNC(=O)c1ccc2c(c1)N(C)C(=O)c1ccccc1S2`, for which the kinetic solubility is 5.3 µg/mL (≈ 15.6 µM).
In turn, `CC1=N/C(=C/c2cc(Br)cc(Br)c2O)C(=O)O1` registered a solubility (kinetic) of 2.8 µg/mL (≈ 7.76 µM). This solubility kinetic is about 1.9-fold lower than that of the compound before.
In the case of `CCOc1ccccc1C(=O)Nc1ccc(C(=O)c2ccccc2)cc1`, the solubility (kinetic) is less than 0.7 µg/mL.
For the compound `O=C1CC(c2cccs2)c2ccc3ccccc3c2N1` (stereo unspecified), the kinetic solubility was less than 0.6 µg/mL.
In turn, `O=C(CC1CC2CCC1C2)NC1CCCCCCC1` (stereo unspecified) yielded a solubility (kinetic) of 4.5 µg/mL (≈ 17.1 µM).
For the compound `Br.CC(C)CC(N)C(=O)OCc1ccc([N+](=O)[O-])cc1` (stereo unspecified), the solubility (kinetic) was greater than 52.1 µg/mL.
For the compound `NS(=O)(=O)c1ccc(CCNS(=O)(=O)c2ccc(Cl)s2)cc1`, the solubility (kinetic) was greater than 57.1 µg/mL.
`O=C(OCC(=O)N1CCCC1)c1cc([N+](=O)[O-])ccc1Cl`: the solubility (kinetic) is greater than 46.9 µg/mL.
As to `Cc1ccccc1S(=O)(=O)NCC1CCCO1` (stereo unspecified), the solubility (kinetic) worked out at 27.1 µg/mL (≈ 106 µM).
`COc1ccc(Nc2ncnc3sccc23)cc1` came in with a solubility (kinetic) of 36 µg/mL (≈ 140 µM).
Turning to `Cc1ccsc1/C=N/N1CCOCC1`, the solubility (kinetic) is greater than 31.5 µg/mL.
In turn, `CCC(=O)c1c[nH]c(C(=O)NCc2cccnc2)c1` displayed a solubility (kinetic) greater than 38.6 µg/mL.
As for `CC1CN(C)C(C)CC1OC(=O)C(c1ccccc1)c1ccccc1` (stereo unspecified), the solubility (kinetic) stood at 42.1 µg/mL (≈ 125 µM).
Consider `COc1ccc(N2CCOCC2)c(NC(=O)c2ccc3c(c2)OCO3)c1`, for which the kinetic solubility worked out at 26.2 µg/mL (≈ 73.5 µM).
On to `C1=C(c2ccccc2)CCNC1.Cl`, for which the solubility (kinetic) worked out at 24.9 µg/mL.
As to `CCC(=O)Nc1ccc2oc(-c3cccnc3)nc2c1`, the kinetic solubility came out at 38.4 µg/mL (≈ 144 µM).
As for `CC1Oc2ccccc2N(Cc2cccc(F)c2)C1=O` (stereo unspecified), the figure is 18.6 µg/mL (≈ 68.6 µM); as for `C=CCn1c(COc2ccccc2)nc2ccccc21`, 31.9 µg/mL (≈ 121 µM).
The figure for `CC(CN1CCOCC1)OC(=O)Cc1ccccc1.Cl` (stereo unspecified) is 33.3 µg/mL; for `O=C(NCC1CC1)Nc1ccc(Cl)cc1` it is 18.9 µg/mL (≈ 84.1 µM); for `O=C(NCc1ccccn1)Nc1ccc(F)c(Cl)c1` it is greater than 42 µg/mL.
As to `CC(=O)C(C)Oc1ccc(Cc2ncc(C(F)(F)F)cc2Cl)cc1` (stereo unspecified), the solubility (kinetic) turned out to be 13.1 µg/mL (≈ 36.6 µM).
`COc1cccc(CNc2ccc(S(=O)(=O)N3CCCC3)cn2)c1` showed a solubility (kinetic) of 46 µg/mL (≈ 132 µM).
As to `O=C(Nc1nccs1)c1ccc(CSc2ccccc2)o1`, the solubility (kinetic) came out at 1.6 µg/mL (≈ 5.06 µM).
`CCc1ccc(C)c(OC(=O)c2cncc(Br)c2)c1`: the kinetic solubility is 2.1 µg/mL (≈ 6.56 µM). The solubility kinetic values of the last two compounds are within 1.5-fold of each other.
With `CC(c1ccccc1)n1c(CCCO)nc2ccccc21` (stereo unspecified), the solubility (kinetic) was greater than 42.1 µg/mL.
The figure for `O=S(=O)(c1cccc2nonc12)N1CCCCC1` is greater than 40.1 µg/mL.
Compound `O=C(COC(=O)COc1ccccc1)Nc1cccnc1Cl` had a kinetic solubility greater than 48.1 µg/mL.
Consider `O=C(Nc1cccc([N+](=O)[O-])c1)Nc1cccs1`, for which the solubility (kinetic) turned out to be 32.3 µg/mL (≈ 123 µM).
Compound `Cc1cccc(C(=O)Nc2sc3c(c2C(=O)O)CCC3)c1` yielded a solubility (kinetic) greater than 45.2 µg/mL.
